Assay results from a melting point compilation (Tetko et al.; mined from patent text by program, amines drawn as free bases though some values may be those of a salt).

Compared with `CCN1CCC(C(c2ccccc2)c2ccccc2)C(=O)C1` (stereo not drawn), `CC(C)c1ccc(C(=O)C2CCN(Cc3ccccc3)CC2)cc1` is higher in melting point: 73 to 74 °C for the first, 76 to 77 °C for the second.

First: COc1ccc2c(Oc3ccc(OCCN4CCCCC4)cc3)c(-c3cccc(O)c3)ccc2c1
Second: Cc1oc(-c2ccc3ccccc3c2)nc1COc1ccc(COc2ncccc2C#N)cc1
The melting point of the first is higher: 170 to 171 °C for the first, 145 to 146 °C for the second.

First: CCN(CC)C(=O)/C=C/c1ccc(Cn2c(-c3ccc(O)cc3)c(C)c3cc(O)ccc32)cc1
Second: CN(C)CCCNC(=O)c1ccc(-c2ccc3nnn(Cc4ccc5ncccc5c4)c3n2)cc1
The melting point of the first is higher: 160 to 165 °C for the first, 132 to 135 °C for the second.

Compared with `O=C(OCCC1CC1)c1ncn2c1[C@@H]1CCCN1C(=O)c1c(Cl)cccc1-2`, `Cc1ccc(S(=O)(=O)N2CCC(Sc3ccc(Cl)c(Cl)c3)CC2)cc1` is lower in melting point: 163 to 164 °C for the first, 79 to 80 °C for the second.

First: O=C(OCCO)c1ccc([N+](=O)[O-])cc1
Second: COC(=O)c1cc(C=NO)cc([N+](=O)[O-])c1
The melting point of the first is lower: 77 to 78 °C for the first, 144 to 145 °C for the second.

First: Cc1cc(C#N)cnc1C(=O)Nc1ccc(F)c([C@]2(C)CO[C@@](C)(C(F)(F)F)C(N)=N2)c1
Second: Cc1cc(Oc2cccc(C(F)(F)F)c2)nn1C(=O)Nc1ccc(C(F)(F)F)cc1
The melting point of the first is higher: 101 to 102 °C for the first, 82 to 84 °C for the second.

Compared with `CNC(=O)C(C)(C)n1cc(C)c(-c2ccccc2Cl)n1`, `O=C1CC(C(=O)C(F)(F)F)Cc2ccccc21` (stereo not drawn) is lower in melting point: 87 to 90.5 °C for the first, 48 to 49 °C for the second.

Compared with `O=C(O)CCCc1ccc(C(NS(=O)(=O)c2ccc(Cl)cc2)C2CCCC2)cc1` (single isomer, unassigned; (-)), `CCn1cc(C(=O)NCc2ccc(Cl)cc2)c(=O)c2sccc21` is higher in melting point: 160 to 162 °C for the first, 189 to 192 °C for the second.

First: COc1ccc(CN2C(=O)[C@H]([C@@H](C)O)[C@H]2[C@@H]2COC(C)(C)O2)c(OC)c1
Second: COc1cc(C(=O)NCc2ccc(N)cc2)cc(OC)c1OC(C)=O
The melting point of the first is higher: 145 to 146 °C for the first, 47 to 48 °C for the second.

Compared with `CN1CC(=O)Nc2ccc([N+](=O)[O-])cc2C1=O`, `COc1ccc(Nc2cccc3c2C(=O)N(C2CCC(=O)NC2=O)C3=O)cc1O` (stereo not drawn) is lower in melting point: 250 to 252 °C for the first, 225 to 227 °C for the second.

Compared with `COc1ccc(-c2coc3ccc(-c4nnc(SCc5cccc(F)c5)o4)cc23)cc1`, `COc1ccc(-c2coc3ccc(-c4nnc(SCc5ccc(OC)c(C(F)(F)F)c5)o4)cc23)cc1` is higher in melting point: 146 to 147 °C for the first, 162 to 163 °C for the second.

First: CC(=O)N(C)Cc1ccc(OCc2ccc(F)cc2)cc1
Second: COc1ccc(NN=C(Sc2ccc(CF)cc2)C(C)=O)cc1
The melting point of the first is lower: 82 to 83 °C for the first, 103 to 104 °C for the second.

First: CC=Cc1c(C(C)C)nc(C(C)C)c(CO)c1-c1ccc(F)cc1
Second: Cc1cc(C)c2c(c1C)OC(C)(C)C2c1ccc(F)cc1 (stereo not drawn)
The melting point of the first is lower: 46 to 47 °C for the first, 109 to 110 °C for the second.

First: CCOC(=O)C1=C(C)NC(N)=C(C(=O)OCC)C1c1ccccc1C#N (stereo not drawn)
Second: CCCCCc1c(C(=O)OCC)oc2cc(OC)ccc12
The melting point of the first is higher: 208 °C for the first, 38 to 41 °C for the second.

Compared with `CN(c1ncc2ncnc(Nc3ccc(F)c(Cl)c3)c2n1)[C@H]1CC[C@H](N)CC1`, `CN1CCC(c2c[nH]c3ccc(NC(=O)c4ccc(Cl)s4)nc23)CC1` is lower in melting point: 203 to 205 °C for the first, 118 to 120 °C for the second.

Compared with `COc1cc2c3c(c1OC)CN(C)CC3Cc1cc3c(cc1-2)OCO3` (stereo not drawn), `COc1ccc(-c2cn(CCCC#N)c3c(OC)ccc(OC)c3c2=O)cc1` is lower in melting point: 169 to 172 °C for the first, 126 to 127 °C for the second.

Compared with `ON=c1c2nccc3cccc(c32)n2cccc12`, `Cc1sc(-c2ccccc2)nc1COc1ccc(CCl)cc1` is lower in melting point: 254 °C for the first, 100 to 101 °C for the second.

Compared with `CCOC(=O)Nc1c(F)cc(Cl)c2nc(C(C)(C)C)oc12`, `Cc1cc(C(=O)C(F)(F)F)ccc1NC(=O)OC(C)(C)C` is lower in melting point: 127 to 129 °C for the first, 85 to 87 °C for the second.

First: O=C(Cn1c(-c2ccc(F)cc2)ncc(NC(=O)OCc2ccccc2)c1=O)N[C@@H](Cc1ccccc1)C(=O)C(F)(F)C(=O)NCc1ccccc1
Second: COC(=O)Nc1nc(-c2ccccc2)c(-c2nc3ccccc3c(=O)n2-c2ccccc2)s1
The melting point of the first is lower: 185 to 186 °C for the first, greater than 275 °C for the second.

Compared with `O=S(=O)(NS(=O)(=O)OCC(F)(F)F)OCC(F)(F)F`, `NS(=O)(=O)c1cc(C(=O)O)cc([N+](=O)[O-])c1OCC(F)(F)F` is higher in melting point: 55 to 58 °C for the first, 195 to 197 °C for the second.

First: CCCCCCCCCCCCCCCCCCOC[C@@H](O)COC(=O)CCCCl
Second: CCCCS(=O)(=O)OCCN(CCBr)c1c(C(=O)NCCOP(=O)(O)O)cc([N+](=O)[O-])cc1[N+](=O)[O-]
The melting point of the first is lower: 48 °C for the first, 123 to 125 °C for the second.

First: CC(C)n1nc(-c2c(-c3ccccc3)nn3ccc(C(=O)N4CCCC4)cc23)ccc1=O
Second: Cc1[nH]c2ccc(OCCN3CCCC3c3cccnc3)cc2c1C(=O)OCc1ccccc1 (stereo not drawn)
The melting point of the first is higher: 189 to 190 °C for the first, 126 to 127 °C for the second.

Compared with `Cc1onc(NS(=O)(=O)c2ccccc2-c2ccc(-c3ncco3)cc2CN(C)C(=O)CC(C)(C)C)c1C`, `CN(C)C(=O)NCCc1cccc(-c2nc(=O)c3ccccc3s2)n1` is higher in melting point: 120 to 128 °C for the first, 190 to 191 °C for the second.

First: CC(C)=CCCN1c2ccccc2CN1[N+](=O)[O-]
Second: N#CC1CN1C(=O)CCN1C(=O)c2ccccc2C1=O (stereo not drawn)
The melting point of the first is lower: 51 to 52 °C for the first, 168 to 170 °C for the second.

Compared with `CC(=O)c1ccc(CCOc2ccc(CC3SC(=O)NC3=O)cc2)nc1` (stereo not drawn), `Cc1ccsc1-c1nc(COc2ccc(CCCCn3ccnc3)cc2)co1` is lower in melting point: 114 to 115 °C for the first, 88 to 89 °C for the second.

First: O=C(O)c1cccc2c1CCC2Cl (stereo not drawn)
Second: C=C(CC(=O)c1ccc(Cl)c(Cl)c1)C(=O)O
The melting point of the first is lower: 136 to 138 °C for the first, 156 to 157 °C for the second.

Compared with `CCC(CC)=NNc1cc2c(nn1)CCN(C(=O)C(C)(C)C)C2`, `CC(C)(C)OC(=O)Nc1cc(N2CCSCC2)c(I)cc1N` is lower in melting point: 183 to 185 °C for the first, 125 to 127 °C for the second.

First: CCOC(=O)c1sc2nc(SCCCN3CCN(c4ccc5ccccc5n4)CC3)[nH]c(=O)c2c1C
Second: Cc1ncccc1C(C#N)N1CCN(C(=O)Cc2ccc(OCc3ccc4ccccc4n3)cc2)CC1 (stereo not drawn)
The melting point of the first is higher: 200 to 201 °C for the first, 64 to 68 °C for the second.

First: O=S(=O)(Nc1cc(Cl)c(Oc2nc3ccc(Cl)cc3s2)c(Cl)c1)c1ccc(C(F)(F)F)cc1Cl
Second: Cc1[nH]nc(Oc2c(Cl)cc(C(F)(F)F)cc2Cl)c1C
The melting point of the first is lower: 82 to 84 °C for the first, 220 to 223 °C for the second.

First: Cc1ncnc(-c2cc([N+](=O)[O-])c(F)cc2F)c1Cl
Second: CCOC(=O)c1c(S(C)=O)n(C2CC2)c2cc(F)c(F)cc2c1=O (stereo not drawn)
The melting point of the first is lower: 95 to 97 °C for the first, 207 °C for the second.

First: CC1(Br)C(Br)=CC(O)=C(Br)C1Br (stereo not drawn)
Second: CCc1cc(O)nc(C)n1
The melting point of the first is higher: 195 to 196 °C for the first, 118 to 119 °C for the second.

First: CCCOc1ccc(CO)nc1Cl
Second: COCOc1ccc(C=O)cc1OC
The melting point of the first is higher: 59 to 60 °C for the first, 39 to 40 °C for the second.

First: O=C(C=c1sc2n(c1=O)Cc1ccccc1N=2)NCc1ccccc1
Second: O=C1CCCc2c1ccc(O)c2CCc1ccccc1
The melting point of the first is higher: 258 to 259 °C for the first, 185 to 188 °C for the second.

First: CCC1(N2C(=O)c3c(F)c(F)c(F)c(F)c3C2=O)C(=O)NC(=O)N(c2ccccc2)C1=O (stereo not drawn)
Second: CN1C(=O)N(c2cc(Cl)cc(Cl)c2)C(=O)/C1=C\c1ccc(C#N)cc1
The melting point of the first is lower: 218 to 220 °C for the first, 239 to 241 °C for the second.

First: CCCCOc1ccc(C(=O)N[C@@H]2COc3cccc(N4CCN(C)CC4)c3C2)cc1
Second: Cc1cc(C)c2c(c1)OC(C)(COc1ccc([N+](=O)[O-])cc1)C=C2 (stereo not drawn)
The melting point of the first is higher: 192 to 194 °C for the first, 116 to 118 °C for the second.

First: CN(C(=O)OC[C@@]1(C)Cn2cc([N+](=O)[O-])nc2O1)c1ccc(OC(F)(F)F)cc1
Second: CCOC(=O)/C=C/c1cc(-c2ccc(C(F)(F)F)cc2)oc1CC
The melting point of the first is higher: 144 to 145 °C for the first, 82 to 83 °C for the second.

Compared with `COc1ccc(NS(=O)(=O)CC(=O)O)cc1[N+](=O)[O-]`, `CNC(=O)NCCN(c1ccc(Cl)cc1Cc1c(F)cccc1F)S(=O)(=O)c1ccc(OC)c(OC)c1` is lower in melting point: 154 to 156 °C for the first, 106 °C for the second.

Compared with `CCOC(=O)c1c(C)nc(NN)c2nnn(CC)c12`, `CCOc1nc(=O)n(C(=O)NCCCl)s1` is higher in melting point: 75 to 78 °C for the first, 82 °C for the second.

`CCOCCOCCn1ccc2c1CC(c1ccccc1Cl)C1C(=O)NC(=O)C21` (stereo not drawn) and `Cn1cc2c(nc(NC(=O)Nc3ccc(CC(=O)NCCOCCOCCNC(=O)OC(C)(C)C)cc3)n3nc(-c4ccco4)nc23)n1` cannot be ordered by melting point: 158 to 162 °C for the first, 157 to 165 °C for the second.

First: CSc1c(-n2ccnc2)c(-c2ccc(Cl)c(Cl)c2)nn1C
Second: NC(=O)c1ccc(-c2ccc3nnn(Cc4ccc5ncccc5c4)c3n2)cc1Cl
The melting point of the first is lower: 88 to 90 °C for the first, 212 to 215 °C for the second.

First: CC1(C)OC(=O)N(c2cccc(C#CC#N)c2)c2ccccc21
Second: COC(=O)c1cc(OC)ccc1N(CC#N)c1ccccc1
The melting point of the first is higher: 212 to 213 °C for the first, 107 to 109 °C for the second.

First: CN1CN(C)C(=N[N+](=O)[O-])N(Cc2cnc(Cl)s2)C1
Second: CC(CNC(=O)CN1CCCC1=O)N1CCN(C)CC1 (stereo not drawn)
The melting point of the first is higher: 125 to 126 °C for the first, 84 to 85 °C for the second.

First: COc1ccc2ccc(NC(=O)C3CC3)nc2n1
Second: Cc1ccc(-c2ccc(C(=O)Nc3ccc4cc(CN5C(C)(C)CCCC5(C)C)ccc4c3)cc2)cc1
The melting point of the first is lower: 170 °C for the first, 235 to 237 °C for the second.

Compared with `C(=CCN(C1CCCCC1)C1CCCCC1)CN(C1CCCCC1)C1CCCCC1`, `COC(=O)N=C(NC(=O)NC1CCCCC1)OC` is lower in melting point: 136 to 138 °C for the first, 79 to 80.5 °C for the second.

First: Cc1c(S(=O)c2cc(Cl)c(Cl)cc2Cl)cc(C(C)(C)C)c(O)c1C(=O)Nc1ccc([N+](=O)[O-])cc1Cl (stereo not drawn)
Second: CCc1ccc2sc3cc(C#N)ccc3c(=O)c2c1
The melting point of the first is higher: 245 to 246 °C for the first, 198 to 215 °C for the second.

First: O=C(O)CCC(CNCC(CO)(NC(=O)OC1C2CC3CC(C2)CC1C3)C(=O)c1c[nH]c2ccccc12)c1ccccc1 (stereo not drawn)
Second: O=c1[nH]cnc2cc(OCc3ccccc3)ccc12
The melting point of the first is lower: 117 to 122 °C for the first, 267 to 269 °C for the second.

First: COc1cc2c(c(Cl)c1Cl)C(=O)C(CCCl)=C2
Second: C#CCN1C(=O)COc2ccc(-n3c(Cl)nc(C(F)(F)F)cc3=O)cc21
The melting point of the first is lower: 103 to 105 °C for the first, 143 to 145 °C for the second.

Compared with `CN1C(=O)C(=NO)C(=NCCCCCC(=O)O)N(C)C1=O`, `C[C@H](OC(=O)NCC(F)(F)C(F)(F)F)C(=O)N[C@@H]1C(=O)N(C)c2cc(F)ccc2O[C@@H]1C` is lower in melting point: 246 to 248 °C for the first, 148 to 150 °C for the second.

First: OC[C@@H]1Cc2ccccc2CN1C(=S)Nc1cccnc1
Second: N#Cc1c(F)ccc(F)c1N
The melting point of the first is higher: 192 °C for the first, 90 to 92 °C for the second.
